Counter-ions that a name gives are not always drawn.
Legend:
K-ras^ts-NRK cells = assay: Action mechanism: morphology / M phase observation in K-ras^ts-NRK cells; type: cell-based, rat; conditions: 33° C., 0.1 μg/ml, after one day
Procedure: Before the addition of the III-121C, the cells grew atop the other and had projections or processes on their surface (FIG. 9(a)).
The procedure as described above was repeated by replacing the III-121C with 0.1 μg/ml of vinblastine, 0.1 μg/ml of vincristine and 0.1 μg/ml of colchicine, which are known as microtubule formation inhibitors.

K-ras-NRK cells = assay: Action mechanism: flow-cytometric DNA content analysis of K-ras-NRK cells; type: cell-based, rat; conditions: 24 hours; III-121C 0.3 and 1 μg/ml, vinblastine 0.1 μg/ml (FIG. 11)
Procedure: FIGS. 11(a) to (d) are graphs showing the results of flow-cytometric analysis wherein the number of cells is depicted in relation to their DNA content, upon addition of no reagent (FIG. 11(a)), 0.3 μg/ml of III-121C (FIG. 11(b)), 1 μg/ml of III-121C (FIG. 11(c)), and 0.1 μg/ml of vinblastine (FIG. 11(d)) to the K-ras NRK cell culture.
To the cells of K-ras-NRK in their propagation was added either one of III-121C and vinblastine. No reagent was added to the control cells. After 24 hours from the addition, the cells were fractionated with a cell sorter to examine the DNA quantity in relation to the number of the cells.

[1] = Acute toxicity (LD50) on mouse upon intravenous injection; type: in vivo; conditions: in vivo, intravenous injection
Procedure: Toxicity (LD50) on mouse of III-121C upon intravenous injection was measured.

Ras protein = conditions: cited from earlier work

Row | Compound | number of circular or elongated cells in M phase (K-ras^ts-NRK cells) | LD50 [1] [mg/kg] | other results
1 | CC[C@]1(O)C[C@H]2CN(CCc3c([nH]c4ccccc34)[C@@](C(=O)OC)(c3cc4c(cc3OC)N(C=O)[C@H]3[C@@](O)(C(=O)OC)[C@H](OC(C)=O)[C@]5(CC)C=CCN6CC[C@]43[C@@H]65)C2)C1 [vincristine, reference compound] | a significant increase in the number of circular or elongated cells that are in their M phase of the cell cycle | – | –
2 | CC[C@]1(O)C[C@@H]2CN(CCc3c([nH]c4ccccc34)[C@@](C(=O)OC)(c3cc4c(cc3OC)N(C)[C@H]3[C@@](O)(C(=O)OC)[C@H](OC(C)=O)[C@]5(CC)C=CCN6CC[C@]43[C@@H]65)C2)C1 [vinblastine, reference compound] | a significant increase in the number of circular or elongated cells that are in their M phase of the cell cycle | – | cell cycle / cell division inhibition (K-ras-NRK cells): inhibition of G2 /M phase in the cell cycle; distribution of DNA quantity in cells (K-ras-NRK cells): an increase in the number of cells having a relatively large quantity of DNA was observed
3 | COc1cc2c(c(OC)c1OC)-c1ccc(OC)c(=O)cc1[C@@H](NC(C)=O)CC2 [colchicine, reference compound] | a significant increase in the number of circular or elongated cells that are in their M phase of the cell cycle | – | –
4 | CC[C@]1(O)C[C@H]2CN(CCc3c([nH]c4ccccc34)[C@@](C(=O)OC)(c3cc4c(cc3OC)N(C=O)[C@H]3[C@@](O)(C(=O)OC)[C@H](OC(C)=O)[C@]5(CC)C=CCN6CC[C@]43[C@@H]65)C2)C1 [vincristine sulfate, reference compound] | – | 2.5 | –
5 | Nc1nc2c(ncn2[C@@H]2O[C@H](CO)[C@@H](O)[C@H]2O)c(=O)o1 [oxanosin] | – | – | inhibition of the action of the ras oncogene product (Ras protein) (Ras protein): capable of inhibiting the action of the ras oncogene product
6 | CC[C@]1(O)C[C@@H]2CN(CCc3c([nH]c4ccccc34)[C@@](C(=O)OC)(c3cc4c(cc3OC)N(C)[C@H]3[C@@](O)(C(N)=O)[C@H](O)[C@]5(CC)C=CCN6CC[C@]43[C@@H]65)C2)C1 [vindecine sulfate, reference compound] | – | 9.1 | –
7 | CC[C@H](C)C(=O)O[C@H]1CCC=C2C=C[C@H](C)[C@H](CC[C@@H]3C[C@@H](O)CC(=O)O3)[C@H]21 [compactin] | – | – | inhibition of the action of the ras oncogene product (Ras protein) (Ras protein): capable of inhibiting the action of the ras oncogene product
8 | CC[C@]1(O)C[C@@H]2CN(CCc3c([nH]c4ccccc34)[C@@](C(=O)OC)(c3cc4c(cc3OC)N(C)[C@H]3[C@@](O)(C(=O)OC)[C@H](OC(C)=O)[C@]5(CC)C=CCN6CC[C@]43[C@@H]65)C2)C1 [vinblastine sulfate, reference compound] | – | 15.2 | –

From US5559115A, “Oncogene function-inhibitory agent, method for inhibiting oncogene function, and treatment of cancer” (Terumo Kabushiki Kaisha, priority 1993, dated 1996)
